Test results taken from patent publication US5204364A, “N-imidazolyl- and N-imidazolylmethyl-derivatives of substituted bicyclic compounds” (Farmitalia Carlo Erba, S.r.l., priority 1988, dated 1993).
Like-named read-outs stand apart in the source and are kept apart here.

How the values were obtained:
TxA2 synthase = assay: TxB2 synthesis (TxA2 synthase activity) in whole blood of normal rats during clotting, in vitro; format: cell-based, rat (Sprague Dawley); details: Rattus norvegicus, read-out: In vitro effect on TxB2 synthesis in normal rats, IC50
Description: The compounds of formula (I) were for example tested for their ability to inhibit TxA2 synthase activity (as reflected by TxB2 generated in whole blood during clotting) in vitro in the rat.
The effect of a representative group of compounds according to the present invention on TxB2 synthesis was evaluated in comparison with known products in whole blood of normal Sprague Dawley rats (Charles River Italy). Blood was withdrawn from the abdominal aorta of the animals under light ether anaesthesia. The blood was immediately divided in portions of 0.5 ml and distributed in glass tubes each containing a concentration of the test compound, or of the reference compounds.
Samples were then allowed to clot for 1 hour at 37° C., centrifuged at 3000 rpm for 10 min, serum collected and stored at -20° C. until assayed.

[1] = orientative acute toxicity, single oral administration; details: in vivo, fasted mice and rats, assessed on the seventh day
Description: The toxicity of the compounds of the invention is negligible, therefore they can be safely used in therapy. Mice and rats which had been deprived of food for nine hours were treated orally with single administrations of increasing doses of compounds of the invention, then housed and normally fed. The orientative acute toxicity (LD50) was assessed on the seventh day after the treatment and e.g. in the compound added as FCE 26572, was higher than 800 mg/kg.

[2] = whole blood, clotted 1 hour at 37° C., TxB2 by RIA, limits for p = 0.95

SMILES	IC50 (TxA2 synthase; [2]) [nM]	also measured
CC(=O)Oc1ccccc1C(=O)O [ASA, Acetyl salicyclic acid, reference compound]		IC50 (TxA2 synthase; 1 h): 31000 nM
O=C(O)c1ccc2c(c1)C=C(n1ccnc1)CC2 [FCE 22178, 5,6dihydro-7-(1H-imidazol-1-yl)-2-naphthalenecarboxylic acid, reference compound]	1000	
CC1=C(n2ccnc2)CCc2ccc(C(=O)O)cc21 [FCE 25672, 5,6-dihydro-7-(1H-imidazol-1-yl)-8-methyl-2-naphthalenecarboxylic acid]	290	
C=C1c2cc(C(=O)O)ccc2CCC1n1ccnc1 (stereo not drawn) [FCE 26252, 5,6,7,8-tetrahydro-7-(1H-imidazol-1-yl)-8-methylene-2-naphthalenecarboxylic acid]	740	
CC1=C(Cn2ccnc2)CCc2ccc(C(=O)O)cc21 [FCE 26333, 5,6-dihydro-7-(1H-imidazol-1-ylmethyl)-8-methyl-2-naphthalenecarboxylic acid]	43	
CC1=C(n2ccnc2)CCc2ccc(C(=O)O)cc21 [FCE 26572]		LD50 at 168 h [1]: > 800 mg/kg
